Results on 1 compound are retold here after ChEMBL document CHEMBL6127128, “Discovery of the First-in-Class Dual-Target ROCK/HDAC Inhibitor with Potent Antitumor Efficacy in Vivo That Trigger Antitumor Immunity” (J Med Chem, 2024).

The structures appear in SMILES notation. The source made the active and inactive calls. The calls are words filed in the database; no cut-off is given here.

One series deals with Histone deacetylase 5 (Homo sapiens, UniProt Q9UQL6). As to the kind of experiment: Inhibition of HDAC5 (unknown origin) using Ac-Leu-Gly-Lys(tfa)-AMC as substrate preincubated for 5 mins followed by substrate addition for 30 mins and measured following trypsin addition for 30 mins by fluorescence based analysis.
Histone deacetylase 5, sequence (Q9UQL6 whole entry): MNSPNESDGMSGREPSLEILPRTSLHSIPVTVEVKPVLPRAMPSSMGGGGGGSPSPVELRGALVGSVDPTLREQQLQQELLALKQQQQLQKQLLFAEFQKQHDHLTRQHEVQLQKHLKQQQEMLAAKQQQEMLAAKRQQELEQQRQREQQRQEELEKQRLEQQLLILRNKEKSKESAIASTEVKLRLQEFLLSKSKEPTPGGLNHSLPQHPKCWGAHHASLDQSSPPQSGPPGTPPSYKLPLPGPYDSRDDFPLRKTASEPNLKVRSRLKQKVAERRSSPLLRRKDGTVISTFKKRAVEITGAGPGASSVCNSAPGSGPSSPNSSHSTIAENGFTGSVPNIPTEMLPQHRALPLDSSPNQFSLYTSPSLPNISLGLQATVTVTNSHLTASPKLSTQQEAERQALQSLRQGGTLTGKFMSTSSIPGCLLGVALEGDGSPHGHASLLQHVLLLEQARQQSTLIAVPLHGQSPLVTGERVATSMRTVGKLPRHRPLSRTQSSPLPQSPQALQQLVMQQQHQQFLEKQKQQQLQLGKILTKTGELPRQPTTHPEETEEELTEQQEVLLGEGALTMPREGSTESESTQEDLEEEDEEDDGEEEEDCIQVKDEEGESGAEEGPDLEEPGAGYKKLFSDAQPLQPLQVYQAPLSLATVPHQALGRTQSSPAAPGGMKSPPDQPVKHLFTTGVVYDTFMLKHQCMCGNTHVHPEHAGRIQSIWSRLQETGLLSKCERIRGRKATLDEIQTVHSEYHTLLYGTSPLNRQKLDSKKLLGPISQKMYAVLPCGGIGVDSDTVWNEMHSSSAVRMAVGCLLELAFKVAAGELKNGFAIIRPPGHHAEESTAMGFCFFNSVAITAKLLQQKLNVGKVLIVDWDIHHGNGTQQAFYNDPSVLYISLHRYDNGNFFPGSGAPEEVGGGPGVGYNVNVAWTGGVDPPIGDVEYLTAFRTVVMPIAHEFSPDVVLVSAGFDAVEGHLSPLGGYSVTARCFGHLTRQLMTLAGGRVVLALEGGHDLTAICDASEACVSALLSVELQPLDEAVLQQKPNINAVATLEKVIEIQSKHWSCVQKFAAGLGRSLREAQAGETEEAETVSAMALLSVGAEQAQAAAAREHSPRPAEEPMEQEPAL
Series [1] deals with T1, Protein deacetylase HDAC6 (Homo sapiens, UniProt Q9UBN7).
T1 sequence (Q9UBN7 whole entry): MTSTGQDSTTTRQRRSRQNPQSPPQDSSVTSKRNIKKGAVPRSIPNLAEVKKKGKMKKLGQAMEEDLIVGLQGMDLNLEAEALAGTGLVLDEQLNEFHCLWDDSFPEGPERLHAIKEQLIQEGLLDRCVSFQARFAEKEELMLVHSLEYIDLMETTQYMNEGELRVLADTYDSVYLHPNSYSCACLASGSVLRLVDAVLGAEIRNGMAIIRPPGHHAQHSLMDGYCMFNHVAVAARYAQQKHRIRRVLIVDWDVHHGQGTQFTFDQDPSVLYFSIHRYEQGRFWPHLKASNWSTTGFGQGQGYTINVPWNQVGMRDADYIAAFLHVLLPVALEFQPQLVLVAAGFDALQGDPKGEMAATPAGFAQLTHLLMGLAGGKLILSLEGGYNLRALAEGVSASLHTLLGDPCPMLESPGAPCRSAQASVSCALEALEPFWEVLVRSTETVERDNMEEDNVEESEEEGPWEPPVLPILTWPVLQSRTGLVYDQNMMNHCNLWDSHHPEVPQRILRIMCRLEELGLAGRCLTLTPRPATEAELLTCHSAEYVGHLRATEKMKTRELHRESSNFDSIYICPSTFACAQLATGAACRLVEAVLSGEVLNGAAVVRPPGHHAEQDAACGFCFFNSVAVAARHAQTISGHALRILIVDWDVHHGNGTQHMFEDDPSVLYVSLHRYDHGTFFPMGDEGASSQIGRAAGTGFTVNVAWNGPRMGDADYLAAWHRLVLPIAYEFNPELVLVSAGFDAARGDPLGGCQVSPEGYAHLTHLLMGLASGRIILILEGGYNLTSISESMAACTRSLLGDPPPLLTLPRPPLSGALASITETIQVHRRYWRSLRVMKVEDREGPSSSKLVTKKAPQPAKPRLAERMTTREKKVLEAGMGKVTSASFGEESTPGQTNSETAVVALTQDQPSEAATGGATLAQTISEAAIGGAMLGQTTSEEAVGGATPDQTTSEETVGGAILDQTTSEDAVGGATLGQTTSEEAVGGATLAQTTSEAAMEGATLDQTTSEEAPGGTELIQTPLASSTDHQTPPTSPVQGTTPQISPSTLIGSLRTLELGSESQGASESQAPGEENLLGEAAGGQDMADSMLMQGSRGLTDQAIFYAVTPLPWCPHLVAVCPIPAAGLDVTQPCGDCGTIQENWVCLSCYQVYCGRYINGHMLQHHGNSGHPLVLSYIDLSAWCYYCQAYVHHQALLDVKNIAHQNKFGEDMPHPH
As to the kind of experiment: Inhibition of HDAC6 (unknown origin) using Ac-Leu-Gly-Lys(Ac)-AMC as substrate preincubated for 5 mins followed by substrate addition for 30 mins and measured following trypsin addition for 30 mins by fluorescence based analysis.

For a further series, the target named is T2, Histone deacetylase 7 (Homo sapiens, UniProt Q8WUI4).
T2 sequence (Q8WUI4 whole entry): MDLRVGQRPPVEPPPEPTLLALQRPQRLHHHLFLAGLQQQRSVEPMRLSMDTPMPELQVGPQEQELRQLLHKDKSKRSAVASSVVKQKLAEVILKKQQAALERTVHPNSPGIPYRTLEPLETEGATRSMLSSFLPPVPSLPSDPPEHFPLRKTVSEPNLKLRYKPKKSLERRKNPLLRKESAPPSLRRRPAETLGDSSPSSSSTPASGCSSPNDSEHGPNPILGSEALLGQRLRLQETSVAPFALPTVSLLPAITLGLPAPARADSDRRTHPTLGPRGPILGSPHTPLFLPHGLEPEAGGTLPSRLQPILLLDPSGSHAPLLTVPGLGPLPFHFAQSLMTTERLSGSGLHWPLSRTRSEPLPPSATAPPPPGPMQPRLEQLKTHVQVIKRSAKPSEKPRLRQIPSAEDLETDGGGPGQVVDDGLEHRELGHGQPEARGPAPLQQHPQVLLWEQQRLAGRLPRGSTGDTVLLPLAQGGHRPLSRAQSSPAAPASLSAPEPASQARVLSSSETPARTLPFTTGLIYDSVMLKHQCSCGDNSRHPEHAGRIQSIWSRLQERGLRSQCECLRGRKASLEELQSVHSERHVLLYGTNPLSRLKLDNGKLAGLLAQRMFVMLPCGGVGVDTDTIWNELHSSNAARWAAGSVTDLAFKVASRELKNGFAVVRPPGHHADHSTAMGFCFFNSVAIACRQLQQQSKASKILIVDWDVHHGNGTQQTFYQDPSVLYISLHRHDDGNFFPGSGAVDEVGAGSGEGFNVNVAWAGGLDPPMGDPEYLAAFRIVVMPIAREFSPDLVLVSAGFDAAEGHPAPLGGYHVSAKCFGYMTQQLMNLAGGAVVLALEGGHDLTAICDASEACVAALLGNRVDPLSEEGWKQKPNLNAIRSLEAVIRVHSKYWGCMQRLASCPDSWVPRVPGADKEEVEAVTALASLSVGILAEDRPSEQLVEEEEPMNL
As to the kind of experiment: Inhibition of HDAC7 (unknown origin) using Ac-Leu-Gly-Lys(tfa)-AMC as substrate preincubated for 5 mins followed by substrate addition for 30 mins and measured following trypsin addition for 30 mins by fluorescence based analysis.

The nature of series [2]: Toxicity against Balb/c mouse implanted with mouse 4T1 cells assessed as effect on morphological changes in liver at 25 to 50 mg/kg, po administered daily for 15 days by Hematoxylin-Eosin staining based analysis. The class given is organism-based. Particulars: in vivo, 360 h, dose 25-50 mg/kg, time 15 day.
Series [3] is described as follows: Half-life in Balb/c mouse at 1 mg/kg, iv measured for 24 hrs by LC-MS/MS analysis. Type of series: ADME, organism-based. Particulars: in vivo.
Series [4] is described as follows: Tmax in Balb/c mouse at 1 mg/kg, iv measured for 24 hrs by LC-MS/MS analysis. Type of series: ADME, organism-based. Particulars: in vivo.
The nature of series [5]: AUC (0 to infinity) in Balb/c mouse at 1 mg/kg, iv measured for 24 hrs by LC-MS/MS analysis. Particulars: in vivo. The class given is ADME, organism-based.
In another series the test system is Mus musculus. As to the kind of experiment: Induction of immunogenic cell death-associated DAMP release in tumor of Balb/c mouse implanted with mouse 4T1 cells assessed as increase in CRT expression at 25 to 50 mg/kg, po administered daily for 15 days by immunofluorescence analysis. Type of series: functional, organism-based. Particulars: dose 25-50 mg/kg, time 15.0 day.

The subject of series [6] is 4T1. As to the kind of experiment: Antitumor immunity against mouse 4T1 cells implanted in Balb/c mouse assessed as increase in CD40+ dendritic cells in tumor tissue at 50 mg/kg, po administered daily for 15 days by immunohistochemistry relative to SAHA. Particulars: time 15 day. The class given is functional.
In series [7] the test system is 4T1. As to the kind of experiment: Antitumor immunity against mouse 4T1 cells implanted in Balb/c mouse assessed as increase in CD8+ T cells in tumor tissue at 50 mg/kg, po administered daily for 15 days by flow cytometry relative to SAHA. The class given is functional. Particulars: time 15 day.

For `O=C(CCCCCCNC(=O)c1cc2cc(-c3cn[nH]c3)ccc2s1)NO`, the IC50 on Histone deacetylase 5 is greater than 10 µM; in series [1], 0.00041 µM; against Histone deacetylase 7, greater than 10 µM. In addition, the Activity entry in series [2] is “Non-Toxic”. Moreover, the half-life in series [3] is 22.3 h. For the same compound, in series [4], the Tmax amounted to 4.8 min. This compound had a total exposure AUC(0-inf) in [5] of 89.3 ng·h/mL. In addition, the result in the series on Mus musculus was Active. For the same compound, the figures for the “fold change (FC)” value in the series with 4T1 [6] and with 4T1 [7] were 2.3 and 1.21, respectively.

What is called IC50 is the concentration that inhibits the measured activity by half. As a reminder, the half-life is the time in which the quantity being followed falls by half. A lower half-life goes with fast loss. The Tmax is the time from dosing to the highest level. One may read the AUC(0-inf) as the area under the concentration-time curve extrapolated to infinity. Low readings indicate low exposure, high ones high exposure.
